Test results from patent EP0381345B1, “Aqueous liquid desmopressin-CMC pharmaceutical composition” (CORINT, LTD., priority 1989, dated 1990).
Marks after values point to notes of the source that are not given here.

How the values were obtained:
Normal test subjects = conditions: in vivo
Method: Normal test subjects were loaded with 1.5% body weight of water under constantly maintained conditions, with urine being collected every 30 minutes, as described by J.H. Cort et al., Kidney International. 8:292, 1975, and then they were administered dDAVP intranasally, using a standard 0.1 mg/ml formulation obtained from Ferring AB of Malmo. A portion of the dDAVP was set aside, while Na-CMC was added to another portion to form a solution having a CMC:dDAVP weight ratio of 100:1.

[1] = in vivo, iv; cited from earlier work
in vivo = conditions: male, rat, sc, pH 4

For `NC(=O)CC[C@@H]1NC(=O)[C@H](Cc2ccccc2)NC(=O)[C@H](Cc2ccc(O)cc2)NC(=O)CCSSC[C@@H](C(=O)N2CCC[C@H]2C(=O)N[C@H](CCCN=C(N)N)C(=O)NCC(N)=O)NC(=O)[C@H](CC(N)=O)NC1=O` [dDAVP, desmopressin], the “Peak % Inhibition of Diuretic Urine Flow” value (Normal test subjects) is given as -76.7* %, the “half-life (T1/2)” value [1] is given as 17 to 18 min and the Cmax (in vivo) is given as 0.027 ng/mL. It also gave a Tmax (in vivo) of 8.8 min and a half-life (in vivo) of 20.5 min.
